# Measurements from patent US8324250B2 (Hoffmann-La Roche Inc., priority 2009, dated 2012).
# Molecular target: T1, recombinant human NK3 receptor (Homo sapiens, UniProt P29371)
# T1 construct: expressed in transfected cells; host or cells: HEK293 cells (transient expression), membranes
# T1 sequence (P29371 1-465): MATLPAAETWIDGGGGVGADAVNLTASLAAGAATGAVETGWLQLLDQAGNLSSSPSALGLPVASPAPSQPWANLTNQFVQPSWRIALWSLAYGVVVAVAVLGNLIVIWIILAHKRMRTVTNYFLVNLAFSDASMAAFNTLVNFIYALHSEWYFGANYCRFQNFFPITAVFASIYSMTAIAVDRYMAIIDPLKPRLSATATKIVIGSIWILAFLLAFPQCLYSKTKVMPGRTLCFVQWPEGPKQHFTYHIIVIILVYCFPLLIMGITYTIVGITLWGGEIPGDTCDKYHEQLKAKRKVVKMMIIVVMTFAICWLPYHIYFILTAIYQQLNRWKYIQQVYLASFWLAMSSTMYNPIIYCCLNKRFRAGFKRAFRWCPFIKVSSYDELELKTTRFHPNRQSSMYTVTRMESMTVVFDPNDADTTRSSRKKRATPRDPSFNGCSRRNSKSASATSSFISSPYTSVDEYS
# Assay: [3H]SR142801 competition binding assay
# Settings: membranes from HEK293 cells transiently expressing recombinant human NK3 receptor; [3H]SR142801 radioligand; 75 min at RT; Ki by Cheng-Prussoff; read-out: Data Ki (hNK-3 receptor affinity)
# Procedure: [^3H]SR142801 Competition Binding Assay
# hNK3 receptor binding experiment were performed using [^3H]SR142801 (Catalog No. TRK1035, specific activity: 74.0 Ci/mmol, Amersham, GE Healthcare UK limited, Buckinghamshire, UK) and membrane isolated from HEK293 cells transiently expressing recombinant human NK3 receptor. After thawing, the membrane homogenates were centrifuged at 48,000×g for 10 min at 4° C., the pellets were resuspended in the 50 mM Tris-HCl, 4 mM MnCl2, 1 μM phosphoramidon, 0.1% BSA binding buffer at pH 7.4 to a final assay concentration of 5 μg protein/well. […] At the end of the incubation, membranes were filtered onto unitfilter (96-well white microplate with bonded GF/C filter preincubated 1 h in 0.3% PEI+0.3% BSA, Packard BioScience, Meriden, Conn.) with a Filtermate 196 harvester (Packard BioScience) and washed 4 times with ice-cold 50 mM Tris-HCl, pH 7.4 buffer. Nonspecific binding was measured in the presence of 10 μM SB222200 for both radioligands. The radioactivity on the filter was counted (5 min) on a Packard Top-count microplate scintillation counter with quenching correction after addition of 45 μl of microscint 40 (Can berra Packard S. A., Zurich, Switzerland) and shaking for 1 h. Inhibition curves were fitted according to the Hill equation: y=100/(1+(x/IC50)^nH), where nH=slope factor using Excel-fit 4 software (Microsoft). IC50 values were derived from the inhibition curve and the affinity constant (Ki) values were calculated using the Cheng-Prussoff equation Ki═IC50/(1+[L]/KD) where [L] is the concentration of radioligand and KD is its dissociation constant at the receptor, derived from the saturation isotherm. All experiments were performed in duplicate and the mean±standard error (SEM) of the individual Ki values was calculated.
row,Ki [nM],SMILES
1,11.7,"Cc1noc(C2CCN(C(=O)N3CCC(C(=O)N[C@@H](C)c4ccc(F)cc4)(c4ccccc4)CC3)CC2)n1 [Example 221, 1-[4-(3-Methyl-[1,2,4]oxadiazol-5-yl)-piperidine-1-carbonyl]-4-phenyl-piperidine-4-carboxylic acid [(S)-1-(4-fluoro-phenyl)-ethyl]-amide]"
2,17.2,"C[C@H](NC(=O)C1(c2ccccc2)CCN(C(=O)N2CCC(N3CCCCC3=O)CC2)CC1)c1ccccc1 [Example 216, 1-(2-Oxo-[1,4′]bipiperidinyl-1′-carbonyl)-4-phenyl-piperidine-4-carboxylic acid ((S)-1-phenyl-ethyl)-amide]"
3,38,"CC(C)C(NC(=O)C1(c2ccc(F)cc2)CCN(C(=O)C2CCN(c3ccc(C#N)cn3)CC2)CC1)c1ccc(F)cc1 (stereo not shown) [Example 153, 1-(5′-Cyano-3,4,5,6-tetrahydro-2H-[1,2′]bipyridinyl-4-carbonyl)-4-(4-fluoro-phenyl)-piperidine-4-carboxylic acid [1-(4-fluoro-phenyl)-2-methyl-propyl]-amide]"
4,3.4,"CC[C@H](NC(=O)C1(c2ccccc2)CCN(C(=O)N2CCN(c3ccc(F)cc3)CC2)CC1)c1ccccc1 [Example 231, 1-[4-(4-Fluoro-phenyl)-piperazine-1-carbonyl]-4-phenyl-piperidine-4-carboxylic acid ((S)-1-phenyl-propyl)-amide]"
5,2.2,"Cc1noc(-c2ccc(C(=O)N3CCC(C(=O)N[C@H](c4cccc(F)c4)C4CC4)(c4ccc(F)cc4)CC3)cc2)n1 [Example 196, 4-(4-Fluoro-phenyl)-1-[4-(3-methyl-[1,2,4]oxadiazol-5-yl)-benzoyl]-piperidine-4-carboxylic acid [(S)-cyclopropyl-(3-fluoro-phenyl)-methyl]-amide]"
6,78.5,"C[C@H](NC(=O)C1(c2ccccc2)CCN(C(=O)c2ccc(-c3cncnc3)cc2)CC1)c1ccccc1 [Example 44, 4-Phenyl-1-(4-pyrimidin-5-yl-benzoyl)-piperidine-4-carboxylic acid ((S)-1-phenyl-ethyl)-amide]"
7,1.1,"CC[C@H](NC(=O)C1(c2ccccc2)CCN(C(=O)c2ccc(-c3nc(C)no3)cc2)CC1)c1ccccc1 [Example 83, 1-[4-(3-Methyl-[1,2,4]oxa-diazol-5-yl)-benzoyl]-4-phenyl-piperidine 4-carboxylic acid ((S)-1-phenyl-propyl)-amide]"
8,36,"O=C(c1ccc(-c2ccc(F)cc2)cc1)N1CCC(C(=O)NC(c2ccc(F)cc2)C(F)(F)F)(c2ccc(F)cc2)CC1 (stereo not shown) [Example 146, 1-(4′-Fluoro-biphenyl-4-carbonyl)-4-(4-fluoro-phenyl)-piperidine-4-carboxylic acid [2,2,2-trifluoro-1-(4-fluoro-phenyl)-ethyl]-amide]"
9,36.4,"O=C(c1ccc(-c2ccc(F)cc2)cc1)N1CCC(C(=O)NC(c2ccccc2)C(F)(F)F)(c2ccc(F)cc2)CC1 (stereo not shown) [Example 145, 1-(4′-Fluoro-biphenyl-4-carbonyl)-4-(4-fluoro-phenyl)-piperidine-4-carboxylic acid (2,2,2-trifluoro-1-phenyl-ethyl)-amide]"
10,77.3,"C[C@H](NC(=O)C1(c2ccccc2)CCN(C(=O)c2ccc(-c3ccn(C)n3)cc2)CC1)c1ccccc1 [Example 69, l-[4-(1-Methyl-1 H-pyrazol-3-yl)-benzoyl]-4-phenyl-piperidine-4-carboxylic acid ((S)-1-phenyl-ethyl)-amide]"
11,79.8,"C[C@H](NC(=O)C1(c2ccccc2)CCN(C(=O)N2CCN(c3ccc(Cl)cn3)CC2)CC1)c1ccccc1 [Example 206, 1-[4-(5-Chloro-pyridin-2-yl)-piperazine-1-carbonyl]-4-phenyl-piperidine-4-carboxylic acid ((S)-1-phenyl-ethyl)-amide]"
12,7.1,"Cc1nc(-c2ccc(C(=O)N3CCC(C(=O)N[C@H](c4cccc(F)c4)C4CC4)(c4ccc(F)cc4)CC3)cc2)no1 [Example 197, 4-(4-Fluoro-phenyl)-1-[4-(5-methyl-[1,2,4]oxadiazol-3-yl)-benzoyl]-piperidine-4-carboxylic acid [(S)-cyclopropyl-(3-fluoro-phenyl)-methyl]-amide]"
13,28.4,"CCc1nc(-c2ccc(C(=O)N3CCC(C(=O)N[C@@H](C)c4ccccc4)(c4ccccc4)CC3)cc2)no1 [Example 71, 1-[4-(5-Ethyl-[1,2,4]oxa-diazol-3-yl)-benzoyl]-4-phenyl-piperidine-4-carboxylic acid ((S)-1-phenyl-ethyl)-amide]"
14,50.4,"C[C@H](NC(=O)C1(c2ccccc2)CCN(C(=O)c2ccc(N3CCCCC3)nc2)CC1)c1ccccc1 [Example 12, 4-Phenyl-1-(3,4,5,6-tetrahydro-2H-[l,2′]bipyridinyl-5′-carbonyl)-piperidine-4-carboxylic acid ((S)-1-phenyl-ethyl)-amide]"
15,5.3,"C[C@H](NC(=O)C1(c2ccccc2)CCN(C(=O)N2CCN(c3ccc(F)cc3)CC2)CC1)C1CCCCC1 [Example 233, 1-[4-(4-Fluoro-phenyl)-piperazine-1-carbonyl]-4-phenyl-piperidine-4-carboxylic acid ((S)-1-cyclohexyl-ethyl)-amide]"
16,54.9,"O=C(c1ccc(-c2ccc(F)cc2)cc1)N1CCC(C(=O)NCc2ccc(F)cc2)(c2ccc(F)cc2)CC1 [Example 136, 1-(4′-Fluoro-biphenyl-4-carbonyl)-4-(4-fluoro-phenyl)-piperidine-4-carboxylic acid 4-fluoro-benzylamide]"
17,39.8,"Cc1noc(-c2ccc(C(=O)N3CCC(C(=O)N[C@@H](C)c4ccc(F)cc4)(C4CCCC4)CC3)cc2)n1 [Example 111, 4- Cyclopentyl-1-[4-(3-methyl-[1,2,4]oxa-diazol-5-yl)-benzoyl]-piperidine-4-carboxylic acid [(S)-1-(4-fluoro-phenyl)-ethyl]-amide]"
18,31.5,"CC(=O)c1cccc(-c2ccc(C(=O)N3CCC(C(=O)N[C@@H](C)c4ccccc4)(c4ccccc4)CC3)cc2)c1 [Example 60, 1-(3′-Acetyl-biphenyl-4-carbonyl)-4-phenyl-piperidine-4-carboxylic acid ((S)-1-phenyl-ethyl)-amide]"
19,50.6,"C[C@H](NC(=O)C1(c2ccccc2)CCN(C(=O)N2CCN(c3cc(C#N)ccn3)CC2)CC1)c1ccccc1 [Example 225, 1-[4-(4-Cyano-pyridin-2-yl)-piperazine-1-carbonyl]-4-phenyl-piperidine-4-carboxylic acid ((S)-1-phenyl-ethyl)-amide]"
20,26.7,"C[C@H](NC(=O)C1(c2ccccc2)CCN(C(=O)c2ccc(-c3ccc(C(F)(F)F)cn3)cc2)CC1)c1ccccc1 [Example 45, 4-Phenyl-1-[4-(5-trifluorome-thyl-pyridin-2-yl)benzoyl]-piperidine-4-carboxylic acid ((S)-1-phenyl-ethyl)-amide]"
21,15.8,"C[C@H](NC(=O)C1(c2ccccc2)CCN(C(=O)c2ccc(-c3nnn(C)n3)cc2)CC1)c1ccccc1 [Example 72, 1-[4-(2-Methyl-2H-tetrazol-5-yl)-benzoyl]-4-phenyl-piperidine-4-carboxylic acid ((S)-1-phenyl-ethyl)-amide]"
22,59,"CC(C)c1nc(-c2ccc(C(=O)N3CCC(C(=O)N[C@@H](C)c4ccccc4)(c4ccccc4)CC3)cc2)no1 [Example 66, 1-[4-(5-Isopropyl-[1,2,4]oxa-diazol-3-yl)-benzoyl]-4-phenyl-piperidine-4-carboxylic acid ((S)-1-phenyl-ethyl)-amide]"
23,90.5,"Cc1noc(-c2ccc(C(=O)N3CCC(C(=O)N[C@@H](C)c4ccc(C(F)(F)F)cc4)(c4ccccc4)CC3)cc2)n1 [Example 114, 1-[4-(3-Methyl-[1,2,4]oxadiazol-5-yl)-benzoyl]-4-phenyl-piperidine-4-carboxylic acid [(S)-1-(4-trifluoromethyl-phenyl)-ethyl]-amide]"
24,1,Cc1noc(-c2ccc(C(=O)N3CCC(C(=O)N[C@@H](C)C4CCCCC4)(c4ccccc4)CC3)cc2)n1 [Example 74]
25,12,"Cc1nc(-c2ccc(C(=O)N3CCC(C(=O)NC(c4ccc(F)cc4)C(C)C)(c4ccc(F)cc4)CC3)cc2)no1 (stereo not shown) [Example 164, 4-(4-Fluoro-phenyl)-1-[4-(5-methyl-[1,2,4]oxadiazol-3-yl)-benzoyl]-piperidne-4-carboxylic acid [1-(4-fluoro-phenyl)-2-methyl-propyl]-amide]"
